The values that follow come from publication PMC11277476, “Synthesis and Biological Evaluation of Novel 2-Aroyl Benzofuran-Based Hydroxamic Acids as Antimicrotubule Agents” (International Journal of Molecular Sciences, 2024).

Molecules are shown by their SMILES.

One assay relates to A549 cells. As to the kind of experiment: In vitro growth inhibition (resazurin, 72 h), A549. The class given is cell-based. As to conditions: Homo sapiens, mean ± SE.
Assay [1] relates to panel of five human cancer cell lines (HeLa, MDA-MB-231, A549, HT-29, MCF-7). As to the kind of experiment: In vitro growth inhibition, range over the panel of five cancer cell lines. As to conditions: for IC50: read-out: IC50 values, range over the cancer cell line panel.
Description: All the cell lines were purchased from the American Type Culture Collection (ATCC, Manassas, VA, USA). Drug stock solutions were prepared for each compound by dissolving them in DMSO at 10 mM.
Cancer cells were seeded in tissue treated, flat bottom, 384-well plates (Corning, Corning, NY, USA) according to their optimal density, in 27 μL of complete medium per well, using a Microlab STAR 96-CORE liquid handling system (Hamilton Bonaduz, Bonaduz, Switzerland) as described previously [75]. Each compound was tested in a 6-points 2-fold dose–response curve, and each dose was tested in duplicate within each plate, in three independent experiments. The final concentration of DMSO in the wells never exceeded 0.1%, which was the maximum concentration.
Only plates with acceptable Z-prime quality metrics (Z′ > 0.6) were further analyzed for the drug screening. Raw data were normalized according to the following equation: cell viability (%) = (x − POS)/(NEG − POS) × 100, where x is the relative fluorescence units (RFU) collected from each single well, NEG is the mean of intraplate negative controls (DMSO, corresponding to 100% cell viability), and POS is the mean of intraplate positive controls (Bortezomib 1 μΜ, equal to 0% cell viability).
For the next assay, the system named is MDA-MB-231 cells. In words: In vitro growth inhibition (resazurin, 72 h), MDA-MB-231. As to conditions: Homo sapiens, mean ± SE. The class given is cell-based.
The test system of assay [2] is HT-29 cells. In words: In vitro growth inhibition (resazurin, 72 h), HT-29. The class given is cell-based. As to conditions: Homo sapiens, mean ± SE.
A further assay deals with HeLa cells. As to the kind of experiment: In vitro growth inhibition (resazurin, 72 h), HeLa. It counts as cell-based. As to conditions: Homo sapiens, concentration inhibiting tumor cell proliferation by 50%, mean ± SE. (In general: The colour change of resazurin is a common sign of viable cells or microbes.)
In a further assay the target is T1, human recombinant HDAC8 (Homo sapiens, UniProt Q9BY41).
T1 construct: purchased BPS Bioscience 50008
T1 sequence (Q9BY41 1-377): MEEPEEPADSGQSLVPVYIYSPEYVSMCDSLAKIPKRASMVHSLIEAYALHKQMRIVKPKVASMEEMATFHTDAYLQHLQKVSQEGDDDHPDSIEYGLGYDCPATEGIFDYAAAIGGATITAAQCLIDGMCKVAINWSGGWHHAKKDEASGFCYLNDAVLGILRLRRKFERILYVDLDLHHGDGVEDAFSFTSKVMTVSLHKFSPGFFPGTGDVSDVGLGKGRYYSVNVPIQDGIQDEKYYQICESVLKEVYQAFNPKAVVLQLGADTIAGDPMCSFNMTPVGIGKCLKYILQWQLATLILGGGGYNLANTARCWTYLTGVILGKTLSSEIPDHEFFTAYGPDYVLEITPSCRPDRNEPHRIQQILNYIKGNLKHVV
In words: HDAC isoform inhibition, fluorogenic substrate, HDAC8. It counts as biochemical. As to conditions: mean ± SE, read-out: IC50 (µM) hHDAC8. As to the method:
Further experiments were also carried out to evaluate the inhibitory activities of test compounds on selected HDAC isoforms. […] Following an incubation of 15 min at RT, fluorescence was measured in an EnSight multimodal plate reader (PerkinElmer, Boston, MA, USA) with an excitation wavelength of 360 nm and an emission wavelength of 450 nm.

A further assay deals with MCF-7 cells. In words: In vitro growth inhibition (resazurin, 72 h), MCF-7. The class given is cell-based. As to conditions: Homo sapiens, MCF7, mean ± SE.
The subject of assay [3] is acetylated histone H3 (Ac-H3K9) in HT-29 cells. In words: Western blot of acetylated histone H3 (Ac-H3K9) in HT-29 cells. It counts as cell-based, human. As to conditions: 10 µM, 6 h. Here is the method: HT-29 cells were treated with selected compounds for 6 h at 10 µM, lysed, and then processed as previously described.
Antibodies directed against total histone H3 and its acetylated form (Ac-H3K9) were purchased from Cell Signaling Technology, Danvers, Massachusetts, while anti-vinculin antibody was purchased from Santa Cruz Biotechnology. Membranes were visualized using ECL select (GE Healthcare), and images were acquired using the iBright FL1500 Imaging System (Thermo Fisher Scientific, Waltham, MA, USA). Anti-vinculin (1:25,000, Santa Cruz Biotechnology, Dallas, TX, USA) was used as loading controls.
(In general: In western blotting, separated proteins are transferred to a membrane and probed.)

The subject of the next assay is bovine brain tubulin. As to the kind of experiment: Inhibition of tubulin polymerization (turbidimetric). The class given is biochemical. As to conditions: tubulin at 10 μM; 20 min incubation at 30 °C; read-out: Tubulin Assembly IC50 ± SD. Here is the method:
Bovine brain tubulin was purified as described previously. To evaluate the effects of the compounds on tubulin assembly in vitro [77], varying concentrations were preincubated with 10 μM tubulin in 0.8 M monosodium glutamate (pH 6.6) at 30 °C, and the reaction mixtures were then cooled to 0 °C. After addition of GTP, the mixtures were transferred to 0 °C cuvettes in Beckman Coulter (Brea, CA, USA) DU-7400/DU-7500 recording spectrophotometers equipped with electronic temperature controllers and were warmed to 30 °C, and the assembly of tubulin was observed turbidimetrically. […] Inhibition of colchicine binding to tubulin was measured as described before, except that the reaction mixtures contained 0.5 μM tubulin and 5 μM each of [^3H]colchicine and test compound. Only one DEAE-cellulose filter was used per sample, and filtration was via gravity.

The test system of assay [4] is HT-29 cells. As to the kind of experiment: Annexin V-PI flow cytometric analysis of apoptosis, HT-29. The class given is cell-based, human. As to conditions: 96 h. Here is the method:
The quantification of apoptosis induced by the test compounds was carried out with flow cytometric analysis using the Annexin-V Fluos kit (Roche Diagnostics, Milan, Italy) following the manufacturer’s instructions. Cancer cells treated with the test compounds for the indicated time points and concentrations were then labeled with annexin V/FITC and PI and analyzed with BD FACS Celesta^TM Flow Cytometer (BD Bioscience, Franklin Lakes, NJ, USA) using the FL1 and FL3 channel, respectively, and FlowJo_v10.7.1 software.
(Flow cytometry measures light scatter and fluorescence of single cells or particles in a stream.)

The subject of assay [5] is HT-29 cells. As to the kind of experiment: Cell cycle analysis (PI, flow cytometry). It counts as cell-based, human. As to conditions: 250 nM for 24 h (figure legend). Here is the method: HT29 cells were treated with the indicated compounds for 24 h and then harvested and fixed in 70% ice-cold ethanol for 24 h. The cells were next treated with a 0.1% v/v solution of Triton X-100 in phosphate buffered saline (PBS) containing 10 μg/mL RNAse A and 20 μg/mL PI. The cells were incubated at room temperature for 30 min and then analyzed on a BD FACS Celesta^TM Flow Cytometer (BD Bioscience, Franklin Lakes, NJ, USA) in the FL3 channel. DNA histograms were analyzed using FlowJo_v10.7.1 software (BD Bioscience, Franklin Lakes, NJ, USA).

For the compound `COc1cc2oc(C(=O)c3cc(OC)c(OC)c(OC)c3)c(C)c2cc1/C=C/C(=O)NO` [Compound 6a, (E)-N-Hydroxy-3-(6-methoxy-3-methyl-2-(3,4,5-trimethoxybenzoyl)benzofuran-5-yl)acrylamide], the IC50 (commonly the midpoint of a concentration-inhibition curve) in the assay with A549 cells is 23.5 ± 0.24 nM; in assay [1], 5 to 23 nM; in the assay with MDA-MB-231 cells, 5 ± 0.04 nM; in the assay with HT-29 cells [2], 7.5 ± 0.11 nM; in the assay on HeLa cells it was 5.2 ± 0.03 nM; at human recombinant HDAC8 it was over 30 µM. Also, in the assay on MCF-7 cells, the midpoint of inhibition, the IC50, lay at 7 ± 0.2 nM. Further, the 50% growth inhibitory concentration (GI50) (in general, the concentration that inhibits growth by half) in assay [1] (read-out: antiproliferative GI50 values, range over the five tumor lines) was 5 to 23 nM.
Take `COc1ccc2c(C)c(C(=O)c3cc(OC)c(OC)c(OC)c3)oc2c1` [TR187, 2-(3′,4′,5′-trimethoxybenzoyl)-3-methyl-6-methoxy benzofuran, reference compound]: the half-inhibitory concentration (IC50) with A549 cells is 24 ± 0.44 nM; in the assay on bovine brain tubulin it was 620 nM; in assay [1], 3 to 72 nM; with MDA-MB-231 cells it was 3.1 ± 0.01 nM; with HT-29 cells [2], 35.2 ± 0.82 nM; with HeLa cells, 8.5 ± 0.11 nM. Besides, the IC50 in the assay with MCF-7 cells came to 72 ± 4 nM. Further, in assay [3], the “acetylated histone H3 (Ac-H3K9) level, Western blot” value is on record as “does not show any inhibitory activity towards HDAC even at the cellular level”.
Turning to `CC(/C=C/C(=O)NO)=C\[C@@H](C)C(=O)c1ccc(N(C)C)cc1` [TSA, Trichostatin, reference compound], the “induction of apoptosis / cell death (annexin V/PI), in words” value in the assay with HT-29 cells [4] is reported as “sensitive only to the higher dose”. In addition, in the assay with HT-29 cells [5], the “Percentage of HT-29 cells in G1 phase” value was determined as 43.90%, the “Percentage of HT-29 cells in G2/M phase” value came to 38.65% and the “Percentage of HT-29 cells in S phase” value was 17.44%.
